These results are taken from patent US8772509B2, “Indole compounds as positive allosteric modulators of the muscarinic receptor” (Vanderbilt University, priority 2010, dated 2014).

The target of the test is T1, mAChR M1 (UniProt P08482).
T1 sequence (P08482 1-460): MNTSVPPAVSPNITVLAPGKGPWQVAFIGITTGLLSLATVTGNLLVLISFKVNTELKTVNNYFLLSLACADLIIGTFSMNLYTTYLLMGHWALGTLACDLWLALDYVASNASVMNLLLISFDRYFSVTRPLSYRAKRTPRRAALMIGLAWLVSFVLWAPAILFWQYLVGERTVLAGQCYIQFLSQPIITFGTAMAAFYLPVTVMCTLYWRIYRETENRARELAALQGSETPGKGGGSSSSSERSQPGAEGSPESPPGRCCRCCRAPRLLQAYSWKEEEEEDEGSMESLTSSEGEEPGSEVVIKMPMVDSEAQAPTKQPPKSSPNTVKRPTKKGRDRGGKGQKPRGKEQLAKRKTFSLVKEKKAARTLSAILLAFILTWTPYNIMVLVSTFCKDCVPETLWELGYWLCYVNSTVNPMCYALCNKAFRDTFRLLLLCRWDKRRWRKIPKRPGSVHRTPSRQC
The experiment in a line: mAChR M1 cell-based functional assay (calcium mobilization, Fluo-4, FDSS). Particulars: for Efficacy (% ACh maximum at 30 μM): maximal calcium flux response from curve fit or response at 30 μM compound, as % of the EC80 ACh response; for EC50: positive allosteric modulation of EC20 acetylcholine response, CHO-K1 cells expressing mAChR M1, read-out: Potency (EC50). How it is done: Chinese hamster ovary (CHO-K1) cells stably expressing rat (r)M1 were purchased from the American Type Culture Collection and cultured according to their indicated protocol. […] To make stable rM2, hM2, rM3, hM4, and rM4 cell lines for use in calcium mobilization assays, these cells also were stably transfected with a chimeric G-protein (Gqi5) (provided by B. R. Conklin, University of California, San Francisco) using Lipofectamine 2000. rM1, hM1, rM3, hM3, rM5, and hM5 cells were grown in Ham's F-12 medium containing 10% heat-inactivated fetal bovine serum (FBS), 20 mM HEPES, and 50 μg/mL G418 sulfate. rM2-Gqi5, hM2-Gqi5, and hM4-Gqi5 cells were grown in the same medium also containing 500 μg/mL Hygromycin B. Stable rM4-Gqi5 cells were grown in DMEM containing 10% heat-inactivated FBS, 20 mM HEPES, 400 μg/mL G418 sulfate, and 500 μg/mL Hygromycin B.
For high throughput measurement of agonist-evoked increases in intracellular calcium, CHO-K1 cells stably expressing muscarinic receptors were plated in growth medium lacking G418 and hygromycin at 15,000 cells/20 μL/well in Greiner 384-well black-walled, tissue culture (TC)-treated, clear-bottom plates (VWR). Cells were incubated overnight at 37° C. and 5% CO2. […] Compound master plates were formatted in an 11 point CRC format (1:3 dilutions) in 100% DMSO with a starting concentration of 10 mM using the BRAVO liquid handler (Agilent). Test compound CRCs were then transferred to daughter plates (240 nL) using the Echo acoustic plate reformatter (Labcyte, Sunnyvale, Calif.) and then diluted into assay buffer (40 μL) to a 2× stock using a Thermo Fisher Combi (Thermo Fisher Scientific, Waltham, Mass.).
Calcium flux was measured using the Functional Drug Screening System (FDSS) 6000 (Hamamatsu Corporation, Tokyo, Japan) as an increase in the fluorescent static ratio. Compounds were applied to cells (20 μL, 2×) using the automated system of the FDSS 6000 at 4 s into the 300 s protocol and the data were collected at 1 Hz. […] Agonist activity was analyzed as a concentration-dependent increase in calcium mobilization upon compound addition. Positive allosteric modulator activity was analyzed as a concentration-dependent increase in the EC20 acetylcholine response. Antagonist activity was analyzed as a concentration-dependent decrease in the EC80 acetylcholine response. Concentration-response curves were generated using a four-parameter logistical equation in XLfit curve fitting software (IDBS, Bridgewater, N.J.) for Excel (Microsoft, Redmond, Wash.) or Prism (GraphPad Software, Inc., San Diego, Calif.).
The calcium mobilization assay was also used to determine “efficacy”. In the context of the assays carried out for the data in Table I, “efficacy” (% ACh at 30 μM) is defined as the maximal response in the calcium flux as determined by the sigmoidal curve fit of the concentration response curve, or in the absence of an acceptable curve fit, the response recorded at 30 μM test compound, stated as a percentage of the response elicited by a concentration of Ach that induces approximately 80% of a maximal (i.e. saturating) ACh response.

The structures appear in SMILES notation. Where only a bound is given, the exact number is not on record here.

As usually defined, the EC50 is the concentration needed to bring the measured effect to its halfway point. Regarding `COc1ncc(-c2cccc(Cn3cc(S(=O)(=O)CC(=O)Nc4ccccn4)c4c(F)cc(F)cc43)c2)cn1` [compound 18, 2-((4,6-difluoro-1-(3-(2-methoxypyrimidin-5-yl)benzyl)-1H-indol-3-yl)sulfonyl)-N-(pyridin-2-yl)acetamide], the “Efficacy (% ACh maximum at 30 μM)” value is 50% and the EC50 came to 3.4 µM.
Take `O=C(CS(=O)(=O)c1cn(Cc2cccc(-c3cncnc3)c2)c2cc(F)cc(F)c12)Nc1ccccn1` [compound 36, 2-((4,6-difluoro-1-(3-(pyrimidin-5-yl)benzyl)-1H-indol-3-yl)sulfonyl)-N-(pyridin-2-yl)acetamide]: the “Efficacy (% ACh maximum at 30 μM)” value was 45% and the concentration for a half-maximal effect (EC50) is greater than 10 µM.
In the same order, the values of `Cc1cc(NC(=O)CS(=O)(=O)c2cn(Cc3cccc(Br)c3)c3cc(F)cc(F)c23)no1` [compound 30, 2-((1-(3-bromobenzyl)-4,6-3-yl)sulfonyl)-N-(5-methylisoxazol-3-yl)acetamide] are 103% and 5.37 µM.
Take `Cc1cc(NC(=O)CS(=O)(=O)c2cn(Cc3cccc(-c4ccncc4)c3)c3cc(F)cc(F)c23)no1` [compound 2, 2-((4,6-difluoro-1-(3-(pyridin-4-yl)benzyl)-1H-indol-3-yl)sulfonyl)-N-(5-methylisoxazol-3-yl)acetamide]: the “Efficacy (% ACh maximum at 30 μM)” value stood at 66% and the concentration for a half-maximal effect (EC50) is 1.2 µM.
For the molecule `Cc1cc(NC(=O)CS(=O)(=O)c2cn(Cc3cccc(-c4ccc(N5CCOCC5)nc4)c3)c3ccccc23)no1` [compound 72, N-(5-methyl-1,2-oxazol-3-yl)-2-[1-({3-[6-(morpholin-4-yl)pyridin-3-yl]phenyl}methyl)-1H-indole-3-sulfonyl]acetamide], the EC50 was greater than 10 µM.
Take `O=C(CS(=O)(=O)c1cn(Cc2cccc(Br)c2)c2cc(F)cc(F)c12)Nc1noc2ccccc12` [compound 21, N-(benzo[d]isoxazol-3-yl)-2-((1-(3-bromobenzyl)-4,6-difluoro-1H-indol-3-yl)sulfonyl)acetamide]: the “Efficacy (% ACh maximum at 30 μM)” value was found to be 72% and the EC50 was 3.7 µM.
Regarding `O=C(CS(=O)(=O)c1cn(Cc2cccc(Br)c2)c2cc(F)cc(F)c12)NCc1ccccn1` [compound 39, 2-((1-(3-bromobenzyl)-4,6-difluoro-1H-indol-3-yl)sulfonyl)-N-(pyridin-2-ylmethyl)acetamide], the “Efficacy (% ACh maximum at 30 μM)” value was found to be 34% and the 50% effective concentration (EC50) is greater than 10 µM.
Take `O=C(CS(=O)(=O)c1cn(Cc2ccccc2)c2cc(F)cc(F)c12)Nc1ccccn1` [compound 1, 2-((1-benzyl-4,6-difluoro-1H-indol-3-yl)sulfonyl)-N-(pyridin-2-yl)acetamide]: the “Efficacy (% ACh maximum at 30 μM)” value is 59% and the EC50 was 0.99 µM.
Take `Cc1cc(NC(=O)CS(=O)(=O)c2cn(Cc3cccc(-c4cnn(CC(C)C)c4)c3)c3ccccc23)no1` [compound 65, N-(5-methyl-1,2-oxazol-3-yl)-2-[1-({3-[1-(2-methylpropyl)-1H-pyrazol-4-yl]phenyl}methyl)-1H-indole-3-sulfonyl]acetamide]: the concentration for a half-maximal effect (EC50) was greater than 10 µM.
Take `COc1ccccc1Cn1cc(S(=O)(=O)CC(=O)Nc2cc(C)on2)c2ccccc21` [compound 47, 2-{1-[(2-methoxyphenyl)methyl]-1H-indole-3-sulfonyl}-N-(5-methyl-1,2-oxazol-3-yl)acetamide]: the EC50 was greater than 10 µM.
For the molecule `Cc1cc(NC(=O)CS(=O)(=O)c2cn(Cc3cccc(-c4ccccc4)c3)c3ccccc23)no1` [compound 56, N-(5-methyl-1,2-oxazol-3-yl)-2-{1-[(3-phenylphenyl)methyl]-1H-indole-3-sulfonyl}acetamide], the concentration for a half-maximal effect (EC50) is greater than 10 µM.
In the case of `Cc1cc(NC(=O)CS(=O)(=O)c2cn(Cc3ccc(Cl)cc3)c3ccccc23)no1` [compound 48, 2-{1-[(4-chlorophenyl)methyl]-1H-indole-3-sulfonyl}-N-(5-methyl-1,2-oxazol-3-yl)acetamide], the EC50 is greater than 10 µM.
As for `Cc1cc(NC(=O)CS(=O)(=O)c2cn(Cc3cc(Br)cc(Br)c3)c3ccccc23)no1` [compound 68, 2-{1-[(3,5-dibromophenyl)methyl]-1H-indole-3-sulfonyl}-N-(5-methyl-1,2-oxazol-3-yl)acetamide], the EC50 was greater than 10 µM.
Take `Cc1cc(NC(=O)CS(=O)(=O)c2cn(Cc3cccc(C#N)c3)c3ccccc23)no1` [compound 45, 2-{1-[(3-cyanophenyl)methyl]-1H-indole-3-sulfonyl}-N-(5-methyl-1,2-oxazol-3-yl)acetamide]: the EC50 was greater than 10 µM.
With `O=C(CS(=O)(=O)c1cn(Cc2cc(Br)ccc2F)c2ccccc12)Nc1ccccc1` [compound 59, 2-{1-[(5-bromo-2-fluorophenyl)methyl]-1H-indole-3-sulfonyl}-N-phenylacetamide], the EC50 is greater than 10 µM.
`COc1cccc(Cn2cc(S(=O)(=O)CC(=O)Nc3cc(C)on3)c3ccccc32)c1` [compound 33, 2-((1-(3-methoxybenzyl)-1H-indol-3-yl)sulfonyl)-N-(5-methylisoxazol-3-yl)acetamide]: the “Efficacy (% ACh maximum at 30 μM)” value turned out to be 79% and the concentration for a half-maximal effect (EC50) was 6.54 µM.
`O=C(CS(=O)(=O)c1cn(Cc2cccc(-c3ccc(F)nc3)c2)c2cc(F)cc(F)c12)Nc1ccccn1` [compound 27, 2-((4,6-difluoro-1-(3-(6-fluoropyridin-3-yl)benzyl)-1H-indol-3-yl)sulfonyl)-N-(pyridin-2-yl)acetamide]: the “Efficacy (% ACh maximum at 30 μM)” value is given as 42% and the EC50 is 5.2 µM.
On the same counts, the results for `O=C(CS(=O)(=O)c1cn(Cc2cccc(-c3cccnc3)c2)c2cc(F)cc(F)c12)Nc1ccccn1` [compound 25, 2-((4,6-difluoro-1-(3-(pyridin-3-yl)benzyl)-1H-indol-3-yl)sulfonyl)-N-(pyridin-2-yl)acetamide] are 57% and 4.6 µM.
On to `Cc1cc(NC(=O)CS(=O)(=O)c2cn(Cc3cccc(-c4ccc(N5CCNCC5)nc4)c3)c3ccccc23)no1` [compound 70, N-(5-methyl-1,2-oxazol-3-yl)-2-[1-({3-[6-(piperazin-1-yl)pyridin-3-yl]phenyl}methyl)-1H-indole-3-sulfonyl]acetamide], for which the EC50 is greater than 10 µM.
For `O=C(CS(=O)(=O)c1cn(Cc2cccc(Br)c2)c2cc(F)cc(F)c12)NC1COC1` [compound 34, 2-((1-(3-bromobenzyl)-4,6-difluoro-1H-indol-3-yl)sulfonyl)-N-(oxetan-3-yl)acetamide], the “Efficacy (% ACh maximum at 30 μM)” value was 43% and the EC50 was greater than 10 µM.
With `Nc1cccc(Cn2cc(S(=O)(=O)CC(=O)Nc3ccccn3)c3c(F)cc(F)cc32)c1` [compound 31, 2-((1-(3-aminobenzyl)-4,6-difluoro-1H-indol-3-yl)sulfonyl)-N-(pyridin-2-yl)acetamide], the “Efficacy (% ACh maximum at 30 μM)” value came out at 69% and the half-maximal effective concentration (EC50) was found to be 5.6 µM.
Regarding `COc1ncccc1-c1cccc(Cn2cc(S(=O)(=O)CC(=O)Nc3ccccn3)c3c(F)cc(F)cc32)c1` [compound 40, 2-((4,6-difluoro-1-(3-(2-methoxypyridin-3-yl)benzyl)-1H-indol-3-yl)sulfonyl)-N-(pyridin-2-yl)acetamide], the “Efficacy (% ACh maximum at 30 μM)” value is 37% and the EC50 is greater than 10 µM.
